Reference: ChEMBL document CHEMBL1151577, “The inhibition of C5a receptor binding by analogs of L-156,602, a cyclic hexadepsipeptide antibiotic” (Bioorg Med Chem Lett, 1992)
Values after ≈ are worked out from the molar mass of the structure shown.

Key:
[1] = biological target: T1, C5a anaphylatoxin chemotactic receptor 1 (Homo sapiens) (UniProt P21730); experiment: Nonspecific degranulation of polymorho neutrophils as measured by myeloperoxidase (MPO) release in a whole functional cell assay
T1 sequence (whole entry): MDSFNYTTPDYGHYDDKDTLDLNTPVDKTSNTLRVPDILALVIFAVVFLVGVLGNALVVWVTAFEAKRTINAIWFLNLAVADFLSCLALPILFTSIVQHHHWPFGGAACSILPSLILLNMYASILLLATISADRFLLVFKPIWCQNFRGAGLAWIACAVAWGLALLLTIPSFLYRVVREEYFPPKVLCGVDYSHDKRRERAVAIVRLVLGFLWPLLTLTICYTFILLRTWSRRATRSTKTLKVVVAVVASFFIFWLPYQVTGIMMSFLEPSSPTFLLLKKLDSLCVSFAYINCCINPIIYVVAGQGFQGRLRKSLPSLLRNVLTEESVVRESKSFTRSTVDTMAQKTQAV

[2] = biological target: T1, C5a anaphylatoxin chemotactic receptor 1 (Homo sapiens); experiment: Inhibition of radiolabeled C5a binding to its membrane bound C5a anaphylatoxin chemotactic receptor
[3] = biological target: T2, C5a anaphylatoxin chemotactic receptor 1 (Homo sapiens, UniProt P21730); experiment: Inhibitory activity against purified binding C5a anaphylatoxin chemotactic receptor
T2 sequence (P21730 whole entry): T1 sequence (whole entry)

[4] = biological target: T2, C5a anaphylatoxin chemotactic receptor 1; experiment: Inhibitory activity against radiolabeled C5a receptor on neutrophil membranes expressing C5a anaphylatoxin chemotactic receptor
[5] = biological target: T2, C5a anaphylatoxin chemotactic receptor 1; experiment: Inhibitory activity for C5a anaphylatoxin chemotactic receptor binding using radiolabeled C5a receptor on neutrophil membranes (~2.0 uM)
[6] = biological target: T1, C5a anaphylatoxin chemotactic receptor 1 (Homo sapiens); experiment: Compound was evaluated for inhibition of radiolabeled C5a binding to its membrane C5a anaphylatoxin chemotactic receptor
Homo sapiens = species: Homo sapiens; experiment: Degranulation of polymorho neutrophils as measured by myeloperoxidase (MPO) release in a whole functional cell assay

Row | SMILES | Concentration causing nonspecific degranulation (MPO release) [1] [µg/mL] | Activity [2] [µg/mL] | also measured
1 | CC[C@H](C)C[C@H]1CC[C@](O)([C@](C)(O)C(=O)N[C@@H]2C(=O)N3NCCC[C@@H]3C(=O)N(C(C)=O)[C@@H](C)C(=O)NCC(=O)N3NCCC[C@H]3C(=O)N(O)[C@H](C)C(=O)O[C@H]2C(C)C)O[C@@H]1C | 0.3 | 4 | –
2 | CC[C@H](C)C[C@H]1CC[C@](O)([C@](C)(O)C(=O)N[C@@H]2C(=O)N3NCCC[C@@H]3C(=O)N(O)[C@@H](C)C(=O)NCC(=O)N3NCCC[C@H]3C(=O)N(O)[C@H](C)C(=O)O[C@H]2C(C)C)O[C@@H]1C | 0.27 | – | IC50 [3]: 5.95 µM; IC50 [4]: 5.95 µM; IC50 [5]: 2.02 µM; Activity [6]: 1.8 µg/mL; EC50 (Homo sapiens): 0.28 µg/mL (≈ 0.333 µM)
3 | CC[C@H](C)C[C@H]1CC[C@](O)([C@](C)(O)C(=O)N[C@@H]2C(=O)N[C@H](CCCNC(C)=O)C(=O)N(O)[C@@H](C)C(=O)NCC(=O)N3NCCC[C@H]3C(=O)N(O)[C@H](C)C(=O)O[C@H]2C(C)C)O[C@@H]1C | > 50 | > 100 | –
4 | CC(=O)C(=O)N[C@@H]1C(=O)N2NCCC[C@@H]2C(=O)N(O)[C@@H](C)C(=O)NCC(=O)N2NCCC[C@H]2C(=O)N(O)[C@H](C)C(=O)O[C@H]1C(C)C | > 13 | > 100 | –
5 | CCC(C)C[C@H]1CC[C@](O)([C@](C)(O)C(=O)N[C@H]2COC(=O)[C@@H](C)NC(=O)[C@@H]3CCCNN3C(=O)CNC(=O)[C@H](C)N(O)C(=O)[C@H]3CCCNN3C2=O)O[C@@H]1C (single isomer, unassigned) | 26 | > 100 | –
6 | CCC(C)C[C@H]1CC[C@](O)([C@](C)(O)C(=O)N[C@@H]2C(=O)N3NCCC[C@@H]3C(=O)N[C@@H](C)C(=O)NCC(=O)N3NCCC[C@H]3C(=O)N[C@H](C)C(=O)O[C@H]2C(C)C)O[C@@H]1C (single isomer, unassigned) | > 50 | 40 | –
7 | CC[C@H](C)C[C@H]1CC[C@](O)([C@](C)(O)C(=O)N[C@@H]2C(=O)N3[C@H](CCCN3C)C(=O)N(O)[C@@H](C)C(=O)NCC(=O)N3[C@@H](CCCN3C)C(=O)N(O)[C@H](C)C(=O)O[C@H]2C(C)C)O[C@@H]1C | 10 | 11 | –
8 | CCC(C)C[C@H]1CC[C@H]([C@](C)(O)C(=O)N[C@@H]2C(=O)N3NCCC[C@@H]3C(=O)N(O)[C@@H](C)C(=O)NCC(=O)N3NCCC[C@H]3C(=O)N(O)[C@H](C)C(=O)O[C@H]2C(C)C)O[C@@H]1C (single isomer, unassigned) | 0.3 | 3.6 | –
9 | CC[C@H](C)C[C@H]1CC[C@](O)([C@](C)(O)C(=O)N[C@@H]2C(=O)N3NCCC[C@@H]3C(=O)N(OCc3ccccc3)[C@@H](C)C(=O)NCC(=O)N3NCCC[C@H]3C(=O)N[C@H](C)C(=O)O[C@H]2C(C)C)O[C@@H]1C | 18 | > 100 | –
10 | CC(O)C(=O)N[C@@H]1C(=O)N2NCCC[C@@H]2C(=O)N(O)[C@@H](C)C(=O)NCC(=O)N2NCCC[C@H]2C(=O)N(O)[C@H](C)C(=O)O[C@H]1C(C)C (stereo in doubt; 26) | > 20 | > 100 | –
11 | CC[C@H](C)C[C@H]1CC[C@](O)([C@](C)(O)C(=O)N[C@@H]2C(=O)N3NCCC[C@@H]3C(=O)N(O)[C@@H](C)C(=O)NCC(=O)N3NCCC[C@H]3C(=O)N(C)[C@H](C)C(=O)O[C@H]2C(C)C)O[C@@H]1C | 4 | 5 | –
12 | CC(C)[C@@H]1OC(=O)[C@@H](C)N(O)C(=O)[C@@H]2CCCNN2C(=O)CNC(=O)[C@H](C)N(O)C(=O)[C@H]2CCCNN2C(=O)[C@H]1NC(=O)[C@@](C)(O)CCCc1ccccc1 | 9 | > 100 | –
13 | CC[C@H](C)C[C@H]1CC[C@](O)([C@](C)(O)C(=O)N[C@@H]2C(=O)N3CCCC[C@@H]3C(=O)N(O)[C@@H](C)C(=O)NCC(=O)N3NCCC[C@H]3C(=O)N(O)[C@H](C)C(=O)O[C@H]2C(C)C)O[C@@H]1C | 20 | 75 | –
14 | CC[C@H](C)C[C@H]1CC[C@](O)([C@](C)(O)C(=O)N[C@@H]2C(=O)N3NCCC[C@@H]3C(=O)N(O)[C@@H](C)C(=O)N[C@@H](C)C(=O)N3NCCC[C@H]3C(=O)N(O)[C@H](C)C(=O)O[C@H]2C(C)C)O[C@@H]1C | – | 60 | –
15 | CC[C@H](C)C[C@H]1CC[C@](O)([C@](C)(O)C(=O)N[C@@H]2C(=O)N3NCCC[C@@H]3C(=O)N(OC)[C@@H](C)C(=O)NCC(=O)N3NCCC[C@H]3C(=O)N(C)[C@H](C)C(=O)O[C@H]2C(C)C)O[C@@H]1C | 20 | 7 | –
16 | CC[C@@H](C)CC1CCC(O)([C@](C)(O)C(=O)NC2C(=O)N3NCCC[C@@H]3C(=O)N(O)[C@@H](C)C(=O)NCCC(=O)N3NCCC[C@H]3C(=O)N(O)[C@H](C)C(=O)O[C@H]2C(C)C)OC1C (stereo not given in full) | > 50 | > 100 | –
17 | CC[C@H](C)C[C@H]1CC[C@](O)([C@](C)(O)C(=O)N[C@@H]2C(=O)N[C@H](CCCN)C(=O)N(O)[C@@H](C)C(=O)NCC(=O)N3NCCC[C@H]3C(=O)N(O)[C@H](C)C(=O)O[C@H]2C(C)C)O[C@@H]1C | > 200 | 60 | –
18 | CC[C@H](C)C[C@H]1CC[C@](O)([C@](C)(O)C(=O)N[C@@H]2C(=O)N3NCCC[C@@H]3C(=O)N(O)[C@@H](C)C(=O)NCC(=O)N3NCCC[C@H]3C(=O)N(OC)[C@H](C)C(=O)O[C@H]2C(C)C)O[C@@H]1C | 2 | 2 | –
19 | CC[C@H](C)C[C@H]1CC[C@](O)([C@](C)(O)C(=O)N[C@@H]2C(=O)N3NCCC[C@@H]3C(=O)N[C@@H](C)C(=O)NCC(=O)N3NCCC[C@H]3C(=O)N(O)[C@H](C)C(=O)O[C@H]2C(C)C)O[C@@H]1C | – | > 100 | –
20 | CC(O)C(=O)N[C@@H]1C(=O)N2NCCC[C@@H]2C(=O)N(O)[C@@H](C)C(=O)NCC(=O)N2NCCC[C@H]2C(=O)N(O)[C@H](C)C(=O)O[C@H]1C(C)C (stereo in doubt; 25) | 23 | 23 | –
21 | CC[C@H](C)C[C@H]1CC[C@](O)([C@](C)(O)C(=O)N[C@@H]2C(=O)N3NCCC[C@@H]3C(=O)N(OCc3ccccc3)[C@@H](C)C(=O)NCC(=O)N3NCCC[C@H]3C(=O)N(O)[C@H](C)C(=O)O[C@H]2C(C)C)O[C@@H]1C | 0.6 | 4 | –
22 | CC(C)[C@@H]1OC(=O)[C@@H](C)N(O)C(=O)[C@@H]2CCCNN2C(=O)CNC(=O)[C@H](C)N(O)C(=O)[C@H]2CCCNN2C(=O)[C@H]1NC(=O)[C@](C)(O)CCCc1ccccc1 | 12 | 100 | –
23 | CC[C@H](C)C[C@H]1CC[C@](O)([C@](C)(O)C(=O)N[C@@H]2C(=O)N3NCCC[C@@H]3C(=O)N(O)[C@@H](C)C(=O)N[C@H](C)C(=O)N3NCCC[C@H]3C(=O)N(O)[C@H](C)C(=O)O[C@H]2C(C)C)O[C@@H]1C | > 100 | > 100 | –
24 | CC[C@H](C)C[C@H]1CC[C@](O)([C@](C)(O)C(=O)N[C@@H]2C(=O)N3NCCC[C@@H]3C(=O)N(C)[C@@H](C)C(=O)NCC(=O)N3NCCC[C@H]3C(=O)N(O)[C@H](C)C(=O)O[C@H]2C(C)C)O[C@@H]1C | 2 | 5 | –
25 | CC[C@H](C)C[C@H]1CC[C@](O)([C@](C)(O)C(=O)N[C@@H]2C(=O)N3NCCC[C@@H]3C(=O)N(CC(=O)OC(C)(C)C)[C@@H](C)C(=O)NCC(=O)N3NCCC[C@H]3C(=O)N(O)[C@H](C)C(=O)O[C@H]2C(C)C)O[C@@H]1C | > 50 | 100 | –
26 | CC[C@H](C)C[C@H]1CC[C@](O)([C@](C)(O)C(=O)N[C@@H]2C(=O)N3NCCC[C@@H]3C(=O)N(O)[C@@H](C)C(=O)NCC(=O)N3NCCC[C@H]3C(=O)N[C@H](C)C(=O)O[C@H]2C(C)C)O[C@@H]1C | 7 | 21 | –
27 | CC[C@H](C)C[C@H]1CC[C@](O)([C@](C)(O)C(=O)N[C@@H]2C(=O)N3NCCC[C@@H]3C(=O)N(OC)[C@@H](C)C(=O)NCC(=O)N3NCCC[C@H]3C(=O)N(OC)[C@H](C)C(=O)O[C@H]2C(C)C)O[C@@H]1C | 3 | 6 | –
28 | CCC(C)C[C@H]1CC[C@](O)([C@](C)(O)C(=O)N[C@@H]2C(=O)N3NCCC[C@@H]3C(=O)N(O)[C@@H](C)C(=O)NCC(=O)N3NCCC[C@H]3C(=O)N[C@H](C)C(=O)OC2C)O[C@@H]1C (single isomer, unassigned) | 1 | 2 | –
29 | CC[C@H](C)C[C@H]1CC[C@](O)([C@](C)(O)C(=O)N[C@@H]2C(=O)N3NCCC[C@@H]3C(=O)N(OC)[C@@H](C)C(=O)NCC(=O)N3NCCC[C@H]3C(=O)N(O)[C@H](C)C(=O)O[C@H]2C(C)C)O[C@@H]1C | 0.3 | 5 | –
